Consider 26 compounds from patent US12630563B2, “Macrocyclic RIP2-kinase inhibitors” (Oncodesign S.A., priority 2020, dated 2026).

A value given as a limit tells only on which side of the number the result lay.

T1 sequence (O43353 1-299): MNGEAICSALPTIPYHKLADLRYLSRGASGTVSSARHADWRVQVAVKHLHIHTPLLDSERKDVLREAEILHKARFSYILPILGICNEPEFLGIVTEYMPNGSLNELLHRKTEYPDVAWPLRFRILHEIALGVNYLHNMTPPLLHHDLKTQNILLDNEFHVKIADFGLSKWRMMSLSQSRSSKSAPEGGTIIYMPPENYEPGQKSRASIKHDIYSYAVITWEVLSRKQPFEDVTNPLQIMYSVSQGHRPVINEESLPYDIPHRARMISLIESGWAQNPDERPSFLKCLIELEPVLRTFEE

This assay concerns the target T1, recombinant hRIPK2 protein (kinase domain aa 1-299-His-tagged) (Homo sapiens, UniProt O43353).
T1 construct: kinase domain aa 1-299-His-tagged; purchased Life Technologies PR7829A
Description: RIPK2 AlphaLISA assay (displacement of bead-bound CZC-8004 from hRIPK2). It is filed as binding. The following applies: recombinant hRIPK2 kinase domain 10 nM, 2 h at 23° C. An outline of the steps: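 His-tagged kinase domain (10 nM, as diluted) was mixed with compound (0.8% DMSO), acceptor beads bearing the probe CZC-8004 and Ni2+ donor beads. After 2 h at 23 °C, AlphaLISA signal was read. Loss of signal reflects displacement of the probe from RIPK2.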
(In general: Bead proximity is the source of the signal in Alpha formats.)
With `COCCO[C@@H]1C[C@H]2COc3nc4c(cnn4cc3OCC3COC3)-c3cc(cc(OC)c3)NCCN2C1=O` [Example 144], the IC50 (usually the midpoint of a concentration-inhibition curve) is below 10 nM.
The same measure for `COCCO[C@@H]1C[C@H]2COc3nc4c(cnn4cc3OCC3CCO3)-c3cc(cc(OC)c3)NCCN2C1=O` (stereo partly drawn) [Example 130, (12R,14S)-4-methoxy-12-(2-methoxyethoxy)-18-(oxetan-2-ylmethoxy)-16-oxa-7,10,20,21,24-pentaazapentacyclo[15.5.2. 1^2,6.0^10,^14.0^20,^23]pentacosa-1(23),2,4,6(25),17(24),18,21-heptaen-11-one]: below 10 nM; for `COCc1cc2cc(c1)-c1cnn3cc(C)c(nc13)OC[C@@H]1CC(OC)C(=O)N1CCN2` (single isomer, unassigned) [Example 66, (12R or S,14S)-12-methoxy-4-(methoxymethyl)-18-methyl-16-oxa-7,10,20,21,24-pentaazapenta cyclo[15.5.2.1^2,6.0^10,14.0^20,23]pentacosa-1(23),2,4,6(25),17(24), 18,21-heptaen-11-one]: below 10 nM; for `CO[C@@H]1C[C@H]2COc3ccn4ncc(c4n3)-c3cc(cc(-c4cn(C)nn4)c3)NCCN2C1=O` [Example 119, (12R,14S)-12-methoxy-4-(1-methyl-1H-1,2,3-triazol-4-yl)-16-oxa-7,10,20,21,24-pentaazapentacyclo[15.5.2.1^2,6.0^1°,^14.0^2°,^23]pentacosa-1(23),2,4,6(25),17(24),18,21-heptaen-11-one]: 10 to 100 nM.
The same measure for `COCCO[C@@H]1C[C@H]2COc3ccn4ncc(c4n3)-c3cc(cc(C(=O)C4CC4)c3)NCCN2C1=O` [Example 101, (12R,14S)-4-cyclopropanecarbonyl-12-(2-methoxyethoxy)-16-oxa-7,10,20,21,24-pentaazapentacyclo[15.5.2.1^2,6.0^1°,^14.0^2°,^23]pentacosa-1(23),2,4,6(25),17(24),18,21-heptaen-11-one]: 100 to 11000 nM.
The same measure for `CO[C@@H]1C[C@H]2COc3ccn4ncc(c4n3)-c3cc(F)cc(c3)N(C)CCN2C1=O` [Example 75, (12R,14S)-4-fluoro-12-methoxy-7-methyl-16-oxa-7,10,20,21,24-pentaazapentacyclo[15.5.2.1^2,6.0^1°,^14.0^2°,^23]pentacosa-1(23),2(25),3,5,17(24),18,21-heptaen-11-one]: 10 to 100 nM.
Regarding `COCCO[C@@H]1C[C@H]2COc3nc4c(cnn4cc3OCC3(C)COC3)-c3cc(cc(OC)c3)NCCN2C1=O` [Example 122], the IC50 was below 10 nM.
The same measure for `CO[C@@H]1C[C@H]2COc3ccn4ncc(c4n3)-c3cc(cc(OCC4CC4)c3)NCCN2C1=O` [Example 45, (12R,14S)-4-(cyclopropylmethoxy)-12-methoxy-16-oxa-7,10,20,21,24-pentaazapentacyclo[15.5.2.1^2,6.0^10,^14.0^20,^23]pentacosa-1(23),2,4,6(25),17(24),18,21-heptaen-11-one]: 100 to 11000 nM; for `COCCO[C@@H]1C[C@H]2COc3ccn4ncc(c4n3)-c3cc(cc(OC)c3)NCCN2C1=O` [Example 47, (12R,14S)-4-methoxy-12-(2-methoxyethoxy)-16-oxa-7,10,20,21,24-pentaazapentacyclo[15.5.2.1^2,6.0^10,^14.0^20,^23]pentacosa-1(23),2(25),3,5,17(24),18,21-heptaen-11-one]: below 10 nM.
The same measure for `COc1cc2cc(c1)-c1cnn3ccc(nc13)OC[C@@H]1C[C@@H](OCC3CC3)C(=O)N1CCN2` [Example 22, (12R,14S)-12-(cyclopropylmethoxy)-4-methoxy-16-oxa-7,10,20,21,24-pentaazapentacyclo[15.5.2.1^2,6.0^10,^14.0^20,^23]pentacosa-1(23),2(25),3,5,17(24),18,21-heptaen-11-one]: below 10 nM.
The same measure for `CC(C)O[C@@H]1C[C@H]2COc3ccn4ncc(c4n3)-c3cc(Cl)cc(c3)NCCN2C1=O` [Example 38, (12R,14S)-4-chloro-12-(propan-2-yloxy)-16-oxa-7,10,20,21,24-pentaazapentacyclo[15.5.2.1^2,6.0^10,^14.0^20,^23]pentacosa-1(23),2,4,6(25),17(24),18,21-heptaen-11-one]: below 10 nM; for `CCO[C@@H]1C[C@H]2COc3nc4c(cnn4cc3C)-c3cc(cc(OC)c3)NCCN2C1=O` [Example 39, (2^3Z,2^4E,5^2S,5^4R)-5^4-ethoxy-1^5-methoxy-2^6-methyl-3-oxa-8-aza-2(3,5)-pyrazolo[1,5-a]96yrimidine-5(2,1)-pyrrolidina-1(1,3)-benzenacyclooctaphan-5^5-one]: below 10 nM.
Turning to `CCN(C)C(=O)c1cc2cc(c1)-c1cnn3cc(C)c(nc13)OC[C@@H]1C[C@@H](OC)C(=O)N1CCN2` [Example 62, (12R,14S)-N-ethyl-12-methoxy-N,18-dimethyl-11-oxo-16-oxa-7,10,20,21,24-pentaazapentacyclo[15.5.2.1^2,6.0^10,^14.0^20,^23]pentacosa-1(23),2(25),3,5,17(24),18,21-heptaene-4-carboxamide], the IC50 is below 10 nM.
On to `CO[C@@H]1C[C@H]2COc3ccn4ncc(c4n3)-c3cc(Cl)cc(c3)NCCN2C1=O` [Example 4, (12R,14S)-4-chloro-12-methoxy-16-oxa-7,10,20,21,24-pentaazapentacyclo[15.5.2.1^2,6.0^10,^14.0^20,^23]pentacosa-1(23),2(25),3,5,17(24),18,21-heptaen-11-one], for which the IC50 was below 10 nM.
The same measure for `O=C1[C@H](OCC2CC2)C[C@H]2COc3ccn4ncc(c4n3)-c3cc(F)cc(c3)NCCN12` [Example 11, (12R,14S)-12-(cyclopropylmethoxy)-4-fluoro-16-oxa-7,10,20,21,24-pentaazapentacyclo[15.5.2.1^2,6.0^10,^14.0^20,^23]pentacosa-1(23),2(25),3,5,17(24),18,21-heptaen-11-one]: below 10 nM.
The same measure for `CO[C@@H]1C[C@H]2COc3ccn4ncc(c4n3)-c3cc(cc(-n4ncc(C)c4C)c3)NCCN2C1=O` [Example 84, (12R,14S)-4-(4,5-dimethyl-1H-pyrazol-1-yl)-12-methoxy-16-oxa-7,10,20,21,24-pentaazapentacyclo[15.5.2.1^2,6.0^1°,^14.0^2°,^23]pentacosa-1(23),2(25),3,5,17(24),18,21-heptaen-11-one]: below 10 nM; for `C#Cc1cc2cc(c1)-c1cnn3cc(C)c(nc13)OC[C@@H]1C[C@@H](OC)C(=O)N1CCN2` [Example 71]: below 10 nM.
Consider `C#Cc1cc2cc(c1)-c1cnn3ccc(nc13)OC[C@@H]1C[C@@H](OCCOC)C(=O)N1CCN2` (racemic) [Example 118, (12R,14S)-4-ethynyl-12-(2-methoxyethoxy)-16-oxa-7,10,20,21,24-pentaazapentacyclo[15.5.2.1^2,6.0^10,^14.0^20,^23]pentacosa-1(23),2(25),3,5,17(24),18,21-heptaen-11-one], for which the IC50 is below 10 nM.
For `CCOc1cc2cc(c1)-c1cnn3ccc(nc13)OC[C@@H]1C[C@@H](OCC)C(=O)N1CCN2` [Example 28, (12R,14S)-4,12-diethoxy-16-oxa-7,10,20,21,24-pentaazapentacyclo[15.5.2.1^2,6.0^10,^14.0^20,^23]pentacosa-1(23),2(25),3,5,17(24),18,21-heptaen-11-one], the IC50 is below 10 nM.
The same measure for `COCC1C[C@H]2COc3ccn4ncc(c4n3)-c3cc(F)cc(c3)NCCN2C1=O` (single isomer, unassigned) [Example 31]: below 10 nM; for `CCO[C@@H]1C[C@H]2COc3ccn4ncc(c4n3)-c3cc(Cl)cc(c3)NCCN2C1=O` [Example 20, (12R,14S)-4-chloro-12-ethoxy-16-oxa-7,10,20,21,24-pentaazapentacyclo[15.5.2.1^2,6.0^10,^14.0^20,^23]pentacosa-1(23),2,4,6(25),17(24),18,21-heptaen-11-one]: below 10 nM; for `CO[C@@H]1C[C@H]2COc3ccn4ncc(c4n3)-c3cc(F)c(F)c(c3)NCCN2C1=O` [Example 29, (12R,14S)-4,5-difluoro-12-methoxy-16-oxa-7,10,20,21,24-pentaazapentacyclo[15.5.2.1^2,6.0^10,^14.0^20,^23]pentacosa-1(23),2(25),3,5,17(24),18,21-heptaen-11-one]: below 10 nM.
The same measure for `CCOC(=O)N1CCN2C(=O)[C@H](OC)C[C@H]2COc2ccn3ncc(c3n2)-c2cc(F)cc1c2` [Example 73, Ethyl (12R,14S)-4-fluoro-12-methoxy-11-oxo-16-oxa-7,10,20,21,24-pentaazapentacyclo[15.5.2.1^2,6.0^1°,^14.0^2°,^23]pentacosa-1(23),2,4,6(25),17(24),18,21-heptaene-7-carboxylate]: 10 to 100 nM; for `COc1cc2cc(c1)-c1cnn3ccc(nc13)OC[C@@H]1C[C@@H](OC(C)C)C(=O)N1CCN2` [Example 16, (12R,14S)-4-methoxy-12-(propan-2-yloxy)-16-oxa-7,10,20,21,24-pentaazapentacyclo[15.5.2.1^2,6.0^10,^14.0^20,^23]pentacosa-1(23),2,4,6(25),17(24),18,21-heptaen-11-one]: below 10 nM.
The same measure for `COc1cc2cc(c1)-c1cnn3ccc(nc13)OC[C@@H]1C[C@@H](OC)C(=O)N1CC(C)N2` (stereo partly drawn) [Example 89, (12R,14S)-4,12-dimethoxy-8-methyl-16-oxa-7,10,20,21,24-pentaazapentacyclo[15.5.2.1^2,6.0^1°,^14.0^2°,^23]pentacosa-1(23),2,4,6(25),17(24),18,21-heptaen-11-one]: below 10 nM.
Regarding `O=C1[C@H](O)C[C@H]2COc3ccn4ncc(c4n3)-c3cc(F)cc(c3)NCCN12` [Example 104, (12R,14S)-4-fluoro-12-hydroxy-16-oxa-7,10,20,21,24-pentaazapentacyclo[15.5.2. 1^2,6.0^10,^14.0^20,^23]pentacosa-1(23),2(25),3,5,17(24),18,21-heptaen-11-one], the IC50 is below 10 nM.
